{"source": "patent US10076519B2", "about": "(CYTOKINETICS, INC., priority 2010, dated 2018)"}
{"system": "rabbit skeletal myofibrils (fast skeletal myofibrils)", "experiment": "Activation of fast skeletal myofibrils (PUMA assay, PK/LDH-coupled ATPase at pCa25)", "type": "biochemical", "conditions": "AC1.4 determined according to the procedure of Example 39; reported as class symbols", "method_in_brief": "(§1)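 Detergent-washed rabbit psoas myofibrils (~90% fast fibres, calcium-regulated) assayed at calcium giving 25% of maximal ATPase rate (pCa25). ADP turnover coupled via pyruvate kinase/lactate dehydrogenase to NADH oxidation, read at 340 nm. Buffer 12 mM PIPES, 2 mM MgCl2, 1 mM DTT, pH 6.8; AC1.4 values derived.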"}
{"smiles": "Cn1nc(N)c2cc(-c3ccc(NCC(C)(C)c4ccc(F)cc4)nn3)ccc21", "note": "[[6-(3-amino-1-methyl(1H-indazol-5-yl))pyridazin-3-yl][2-(4-fluorophenyl)-2-methylpropyl]amine]", "Mean AC1.4": "B (B=1-10 uM)"}
{"smiles": "CNC(=O)c1cccc(-c2ccc(NCC(C)(C)c3ccc(F)cc3)nn2)c1", "note": "[[3-(6-{[2-(4-fluorophenyl)-2-methylpropyl]amino}pyridazin-3-yl)phenyl]-N-methylcarboxamide]", "Mean AC1.4": "B (B=1-10 uM)"}
{"smiles": "CC(C)(CNc1ccc(-c2ccc3[nH]nc(NCC(F)(F)F)c3c2)nn1)c1ccc(F)cc1", "note": "[[2-(4-fluorophenyl)-2-methylpropyl](6-{3-[(2,2,2-trifluoroethyl)amino](1H-indazol-5-yl)}pyridazin-3-yl)amine]", "Mean AC1.4": "A (A=<1 uM)"}
{"smiles": "CC(=O)Nc1nc(-c2ccc(NCC3(c4ncccc4F)CCC3)nn2)c[nH]1", "Mean AC1.4": "D (D=>20 uM)"}
{"smiles": "CC(C)(C)OC(=O)NCCCNC(=O)c1cccc(-c2ccc(NCC(C)(C)c3ccc(F)cc3)nn2)c1", "note": "[N-{3-[(tert-butoxy)carbonylamino]propyl}[3-(6-{[2-(4-fluorophenyl)-2-methylpropyl]amino}pyridazin-3-yl)phenyl]carboxamide]", "Mean AC1.4": "B (B=1-10 uM)"}
{"smiles": "CC(C)(CNc1ccc(C(=O)N[C@@H](Cc2ccccc2)C(N)=O)nn1)c1ccc(F)cc1", "note": "[N-((1S)-1-carbamoyl-2-phenylethyl)(6-{[2-(4-fluorophenyl)-2-methylpropyl]amino}pyridazin-3-yl)carboxamide]", "Mean AC1.4": "C (C=10-20 uM)"}
{"system": "rabbit skeletal myofibrils (fast skeletal myofibrils)", "experiment": "Activation of fast skeletal myofibrils (PUMA assay, PK/LDH-coupled ATPase at pCa25)", "type": "biochemical", "conditions": "median AC1.4 class, procedure of Example 39", "method_in_brief": "as §1"}
{"smiles": "NC(=O)c1cccc(-c2ccc(NC3(c4cccc(OC(F)F)n4)CCC3)nn2)c1", "Mean AC1.4": "A (A=<1 uM)"}
{"smiles": "O=C(NCc1cnc(-c2ccc(NCC3(c4ncccc4F)CCC3)nn2)s1)[C@H]1C[C@@H](F)CN1", "note": "[((2R,4R)-4-fluoropyrrolidin-2-yl)-N-({2-[6-({[(3-fluoro(2-pyridyl))cyclobutyl]methyl}ami-no)pyridazin-3-yl](1,3-thiazol-5-yl)}methyl)carboxamide]", "Mean AC1.4": "A (A=<1 uM)"}
{"smiles": "NC(=O)Nc1ccc(-c2ccc(NCC3(c4ncccc4F)CCC3)nn2)cn1", "Mean AC1.4": "B (B=1-10 uM)"}
{"smiles": "O=C(c1cnc(-c2ccc(NCC3(c4ncccc4F)CCC3)nn2)s1)N1CCC(O)C1", "note": "(stereo not shown) [2-[6-({[(3-fluoro(2-pyridyl))cyclobutyl]methyl}ami-no)pyridazin-3-yl](1,3-thiazol-5-yl) 3-hydroxypyrrolidinyl ketone]", "Mean AC1.4": "C (C=10-20 uM)"}
{"smiles": "CC(C)(C)Nc1ccc(-c2cccc(C(N)=O)c2)nn1", "note": "[3-{6-[(tert-butyl)amino]pyridazin-3-yl}benzamide]", "Mean AC1.4": "C (C=10-20 uM)"}
{"smiles": "O=C1NCc2cc(-c3ccc(NCC4(c5ncccc5F)CCC4)nn3)sc21", "note": "[2-[6-({[(3-fluoro-2-pyridyl)cyclobutyl]methyl}ami-no)pyridazin-3-yl]thiopheno[2,3-c]3-pyrrolin-6-one]", "Mean AC1.4": "B (B=1-10 uM)"}
{"smiles": "CNC(=O)Nc1ccc(-c2ccc(NCC3(c4ncccc4F)CCC3)nn2)cc1", "Mean AC1.4": "A (A=<1 uM)"}
{"system": "rabbit skeletal myofibrils (fast skeletal myofibrils)", "experiment": "Activation of fast skeletal myofibrils (PUMA assay, PK/LDH-coupled ATPase at pCa25)", "type": "biochemical", "conditions": "median AC1.4 reported as class; procedure of Example 39", "method_in_brief": "as §1"}
{"smiles": "COC(=O)c1csc(NC(=O)c2ccc(NCC3(c4ncccc4F)CCC3)nn2)n1", "note": "[methyl 2-{[6-({[(3-fluoro-2-pyridyl)cyclobutyl]methyl}ami-no)pyridazin-3-yl]carbonylamino}-1,3-thiazole-4-carboxylate]", "Mean AC1.4": "B (B=1-10 uM)"}
{"smiles": "C[C@H](O)C(=O)NCc1cnc(-c2ccc(NCC3(c4ncccc4F)CCC3)nn2)s1", "note": "[(2S)-N-({2-[6-({[(3-fluoro(2-pyridyl))cyclobutyl]methyl}ami-no)pyridazin-3-yl](1,3-thiazol-5-yl)}methyl)-2-hydroxypropanamide]", "Mean AC1.4": "A (A=<1 uM)"}
{"smiles": "NC(=O)c1ccc(F)c(-c2ccc(NC[C@]3(c4ncccc4F)C[C@H](F)C3)nn2)c1O", "note": "[4-fluoro-3-[6-({[3-fluoro-1-(3-fluoro(2-pyridyl))cyclobutyl]methyl}ami-no)pyridazin-3-yl]-2-hydroxybenzamide]", "Mean AC1.4": "A (A=<1 uM)"}
